Measured values taken from US20260001844A1, “COMPOUNDS AND METHODS FOR THE TREATMENT AND PREVENTION OF HIV” (priority 2022, published 2026).
Read-outs that look alike come from different tables or passages of the source.

Legend:
[1] = system: HIV-1CH58TF infected primary CD4+ T cells; assay: ADCC FACS-based assay with HIV+ plasma, HIV-1CH58TF infected cells; type: cell-based, human; conditions: for Susceptibility of HIV-1CH58TF infected cells to ADCC mediated by HIV+ plasma (in words): 50 μM compound, plasma 1:1000; for % ADCC (CH58): Table 1, approximate values, HIV+ plasma 1/1,000, compound 50 μM
[2] = system: HIV-1AD8 infected primary CD4+ T cells; assay: Cell-surface staining with HIV+ plasma, HIV-1AD8 infected cells; conditions: 50 μM compound; plasma 1:1000
[3] = system: HIV-1JRFL; assay: Viral neutralization in TZM-bl cells (luciferase), HIV-1JRFL; type: cell-based
[4] = system: HIV-1AD8; assay: Viral neutralization in TZM-bl cells (luciferase), HIV-1AD8; type: cell-based; conditions: read-out: IC50 HIV-1AD8
[5] = system: VSV-G pseudovirus; assay: microbe, parasite or virus in culture; type: cell-based; conditions: read-out: IC50 VSV-G pseudovirus
[6] = system: HIV-1CH58TF infected primary CD4+ T cells; assay: Cell-surface staining with HIV+ plasma, HIV-1CH58TF infected cells; type: cell-based, human; conditions: 50 μM compound; plasma 1:1000
[7] = system: HIV-1CH58TF infected primary CD4+ T cells; assay: Anti-CoRBS 17b mAb binding to infected cells (flow cytometry), HIV-1CH58TF; type: cell-based, human; conditions: 50 μM compound; p24+ cells
Protocol: (§1) FIG. 4. Anti-CoRBS Ab binding. Anti-CoRBS Ab-17b binding to (A) HIV-1CH58TF, (B) HIV-1JRFL (C) or HIV-1AD8 infected primary CD4+ T cells was done in the presence of 50 μM of the indicated CD4mcs or the same volume of vehicle (DMSO). The median fluorescence intensity (MFI) of 17b binding is reported for the productively-infected cell (p24+) population. Data shown are the mean±SD of at least three independent experiments. Statistical significance was evaluated using an un-paired t test (*, p<0.05; **, p<0.01; ***, p<0.001; ****, p<0.0001; ns, not significant).
The ability of the compounds to expose the co-receptor binding site (CoRBS) were tested by measuring binding of the anti-CoRBS 17b mAb to infected cells. […] Two days later, infected cells were co-incubated with 50 μM (+)-BNM-III-170, (S)-MCG-IV-210, TFH-070-A6, TFH-I-116-D1, ZXC-I-090, ZXC-I-092, DL-I-101 (ZXC-I-257), and DL-I-102 (ZXC-I-258) or the same volume of DMSO, and the 17b interaction was measured by flow cytometry after intracellular anti-p24 to identify the infected cell population. […]
Cell-surface staining was performed. […] The percentage of infected cells (p24+ cells) was determined by gating the live cell population on the basis of the Aqua-Vivid viability dye staining. Samples were analyzed on an LSRII cytometer (BD Biosciences), and data analysis was performed using FlowJo vX.0.7 (Tree Star, Ashland, OR, USA).

[8] = system: HIV-1CH58TF; assay: Viral neutralization in TZM-bl cells (luciferase), HIV-1CH58TF; type: cell-based
[9] = system: HIV-1JRFL infected primary CD4+ T cells; assay: ADCC FACS-based assay with HIV+ plasma, HIV-1JRFL infected cells; type: cell-based, human; conditions: for % ADCC (JR-FL): Table 1, approximate values
[10] = system: HIV-1JRFL infected primary CD4+ T cells; assay: Anti-CoRBS 17b mAb binding to infected cells (flow cytometry), HIV-1JRFL; type: cell-based, human; conditions: 50 μM compound; p24+ cells
Protocol: as §1
The ability of the compounds to expose the co-receptor binding site (CoRBS) were tested by measuring binding of the anti-CoRBS 17b mAb to infected cells. Briefly, primary CD4+ T cells were infected with HIV-1CH58TF, HIV-1JRFL or HIV-1AD8. Two days later, infected cells were co-incubated with 50 μM (+)-BNM-III-170, (S)-MCG-IV-210, TFH-070-A6, TFH-I-116-D1, ZXC-I-090, ZXC-I-092, DL-I-101 (ZXC-I-257), and DL-I-102 (ZXC-I-258) or the same volume of DMSO, and the 17b interaction was measured by flow cytometry after intracellular anti-p24 to identify the infected cell population. […] Defined by the sensitivity to anti-body-mediated neutralization (tier-1, 2 and 3), Tier-2 viruses (HIV-1JRFL and HIV-1AD8) are representative of biologically relevant circulating HIV-1 strains which are moderately neutralized by neutralizing antibodies. Weak neutralizing antibodies, or first generation CD4mc, prevent the infection of viruses from tier-1 but not those from tier-2 or tier-3. […] A similar phenotype was observed when using HIV-1AD8 infected cells (FIG. 4C).
The anti-CoRBS 17b mAb was used alone or in combination with different com-pounds for cell-surface staining. Plasma from different HIV-infected donors were collected, heat-inactivated and conserved. Alexa Fluor 647 conjugated Goat anti-human antibodies (Invitrogen, Waltham, MA, USA) were used as secondary Abs.
Cell-surface staining was performed. Primary CD4 T cells were isolated from healthy donors and infected with HIV-1CH58TF, HIV-1JRFL or HIV-1AD8. Binding of HIV-1-infected cells by plasma (1:1000 dilution) or 17b mAb (5 μg/mL) in the presence or absence of 50 μM compounds was performed 48 h after infection. Cells were then incubated at 37° C. for 1 h followed by adding anti-human Alexa Fluor-647 (Invitrogen) secondary Abs for 20 min. Cells were then stained intracellularly for HIV-1 p24, using the Cytofix/Cytoperm Fixation/Permeabilization Kit (BD Biosciences, Mississauga, ON, Canada) and the fluorescent anti-p24 mAb (PE-conjugated anti-p24, clone KC57; Beckman Coulter/Immunotech). The percentage of infected cells (p24+ cells) was determined by gating the live cell population on the basis of the Aqua-Vivid viability dye staining. Samples were analyzed on an LSRII cytometer (BD Biosciences), and data analysis was performed using FlowJo vX.0.7 (Tree Star, Ashland, OR, USA).

[11] = system: HIV-1AD8 infected primary CD4+ T cells; assay: ADCC FACS-based assay with HIV+ plasma, HIV-1AD8 infected cells; type: cell-based, human; conditions: 50 μM compound; plasma 1:1000
[12] = system: HIV-1JRFL infected primary CD4+ T cells; assay: Cell-surface staining with HIV+ plasma, HIV-1JRFL infected cells; type: cell-based, human; conditions: 50 μM compound; plasma 1:1000
[13] = Human immunodeficiency virus 1, TZM-bl, read-out: IC50 HIV-1JRFL
[14] = Human immunodeficiency virus 1, TZM-bl
[15] = Human immunodeficiency virus 1, TZM-bl, read-out: IC50 (JR-FL)
[16] = Human immunodeficiency virus 1, TZM-bl, read-out: IC50 (CH58)
[17] = Table 2, average ± SD of at least three independent experiments, TZM-bl cells, read-out: IC50 HIV-1CH58TF

Structure (SMILES)	Susceptibility of HIV-1CH58TF infected cells to ADCC mediated by HIV+ plasma (in words) [1]	HIV+ plasma binding to HIV-1AD8 infected cells [2]	IC50 [3, 13] [µM]	IC50 ([5]; Pseudovirus, TZM-bl) [µM]	% ADCC (CH58) [1] [%]	IC50 [3, 15] [µM]	IC50 [8, 16] [µM]	% ADCC (JR-FL) [9] [%]	Exposure of the co-receptor binding site (17b mAb binding), HIV-1JRFL infected cells [10]	also measured
NCCNC(=O)N1CCC[C@H](C(=O)Nc2ccc(Cl)c(F)c2)C1 [MCG-IV-210, reference compound]	enhanced	did not promote HIV+ plasma binding	> 100	> 100						Inhibition of viral infection by HIV-1JRFL (in words) ([3]; TZM-bl neutralization assay): unable to inhibit viral infection; IC50 [4, 14]: > 100 µM; Recognition of HIV-1CH58TF infected cells by HIV+ plasma [6]: enhanced the recognition; Exposure of the co-receptor binding site (17b mAb binding), HIV-1CH58 infected cells [7]: exposed the CoRBS
CN1CCN(C(=O)N2CCC[C@H](C(=O)Nc3ccc(Cl)c(F)c3)C2)CC1 [TFH-I-070-A6, (S)-4-(3-((4-chloro-3-fluorophenyl)carbamoyl)piperidine-1-carbonyl)-1-methylpiperazin-1-ium, 2,2,2-trifluoro-acetate]	also the case	did	67.2 ± 30	> 100	5	80	30	3	successfully exposed the CoRBS	
O=C(O)CN1CCN(C(=O)N2C[C@H](CO)C[C@H](C(=O)Nc3ccc(Cl)c(F)c3)C2)CC1 (racemic) [DL-I-102, 2-(4-((3S,5R)-3-((4-chloro-3-fluorophenyl)carbamoyl)-5-(hydroxymethyl)piperidine-1-carbonyl)piperazin-1-yl)acetic acid]	also the case			> 100					successfully exposed the CoRBS	
C[C@@H]1CN(C(=O)N2C[C@H](CN)C[C@H](C(=O)Nc3ccc(Cl)c(F)c3)C2)C[C@H](C)N1C (stereo in doubt) [ZXC-I-092]	also the case		54.2 ± 22.8	> 100	~3	28	~50	~2	successfully exposed the CoRBS	IC50 [8, 17]: 0.75 ± 0.12 µM
CN1CCN(C(=O)N2C[C@H](CN)C[C@H](C(=O)Nc3ccc(Cl)c(F)c3)C2)CC1 (stereo in doubt) [ZXC-I-090]	also the case			> 100	~3	18	~50	~2		
NCC(=O)N1CCN(C(=O)N2C[C@H](CO)C[C@H](C(=O)Nc3ccc(Cl)c(F)c3)C2)CC1 (racemic) [DL-I-101, (3S,5R)-N-(4-chloro-3-fluorophenyl)-1-(4-glycylpiperazine-1-carbonyl)-5-(hydroxymethyl)piperidine-3-carboxamide]	also the case	did		> 100					successfully exposed the CoRBS	ADCC against HIV-1AD8 infected cells (in words) [11]: translated into ADCC
CNCc1ccc2c(c1)C[C@H](CN=C(N)N)[C@H]2NC(=O)C(=O)Nc1ccc(Cl)c(F)c1.O=C(O)C(F)(F)F.O=C(O)C(F)(F)F [BNM-III-170, reference compound]	enhanced									IC50 ([3]; TZM-bl neutralization assay, read-out: IC50, neutralization of HIV-1JRFL): 13.5 µM; IC50 ([4]; Table 2, average ± SD of at least three independent experiments, TZM-bl cells): 3.75 ± 1.3 µM; IC50 [5]: > 100 µM; IC50 [8, 17]: 0.033 ± 0.01 µM; Recognition of HIV-1CH58TF infected cells by HIV+ plasma [6]: enhanced the recognition
C[C@@H]1CN(C(=O)N2CCC[C@H](C(=O)Nc3ccc(Cl)c(F)c3)C2)C[C@H](C)N1C (stereo in doubt) [TFH-I-116-D1]	also the case	did		> 100	5	20	< 1	3	successfully exposed the CoRBS	Recognition of HIV-1JRFL infected cells by antibodies from PLWH (HIV+ plasma) [12]: recognized infected cells; IC50 ([3]; Human immunodeficiency virus 1, TZM-bl, read-out: IC50, neutralization of HIV-1JRFL (text, unit printed M)): 43.8 µM; IC50 [4, 14]: 4.8 ± 1.7 µM; ADCC against HIV-1AD8 infected cells (in words) [11]: translated into ADCC; IC50 ([8]; Human immunodeficiency virus 1, TZM-bl, read-out: IC50 HIV-1CH58TF): 0.065 ± 0.01 µM; ADCC against HIV-1JRFL infected cells compared to (S)-MCG-IV-210 (in words) ([9]; 50 μM compound, plasma 1:1000): not translated into enhanced ADCC
